The source of these data is US7910729B2, “Azulenyl nitrone spin trapping agents, methods of making and using same” (The Florida International University Board of Trustees, priority 2004, dated 2011).

Usually melting point stands for the temperature of the solid-liquid transition.

Data set [1] in a line: Antioxidant assay: AIBN-initiated oxidation of cumene to cumene hydroperoxide, followed by 1H NMR. Type of data set: physicochemical. To be noted: atmospheric oxygen, 37° C., FIG. 1. As for the experimental part:
In the following example, comparative testing of the antioxidant activity of azulenyl nitrone compounds of the invention against a control, was performed. The assay was based on the well-established oxidation of cumene to cumene hydroperoxide by atmospheric oxygen at 37° C. in the presence of the free radical initiator AIBN (Blanchard, H. S. J. Am. Chem. Soc. (1959) 81:4548; Characterization of products formed during the autoxidation of beta carotene. Handelman, G. J., van Kujik, F. J. G. M., Chatterjee, A., Krinsky, N. I. Free Rad. Biol. Med. (1991) 10: 427-37). The progress of the peroxidation reaction is conveniently followed and quantified by 1H NMR spectroscopy by monitoring the appearance and increasing integration of the singlet arising from the methyl groups of cumene hydroperoxide. The use of a long, low power, selective pulse (Shaped radiofrequency pulses in high resolution NMR. Freeman, R. J. Prog. Nuc. Mag. Spec. (1998) 32:59) allowed the growth of the cumene hydroperoxide methyl group singlet to be accurately measured in the presence of a huge excess of cumene. This was shown by using known concentrations of commercially available cumene hydroperoxide to calibrate the peak areas.

The next data set deals with aged rats. The conditions noted are these: chronic treatment; cited from earlier work.
In the next data set the test system is aged animal model. The conditions noted are these: daily intraperitoneal injection, male and female populations; cited from earlier work.
Data set [2] relates to human diploid fibroblast cells. The conditions noted are these: cited from earlier work.
Data set [3] deals with lipopolysaccharide (LPS) administered to rats. The conditions noted are these: cited from earlier work.
For data set [4] the following is noted: aqueous solution at pH 7 and 20° C.; cited from earlier work.

For the compound `Cc1ccc(C(C)C)cc2c(/C=[N+](\[O-])C(C)(C)C)cc(/C=C/c3cc(/C=[N+](\[O-])C(C)(C)C)c4cc(C(C)C)ccc(C)c3-4)c1-2` [STAZN, Stilbazulenyl Nitrone], the “potency as nitrone-based chain breaking antioxidants / free-radical scavenging/antioxidant activity” value in data set [1] is on record as “remarkable potency”.
Regarding `COC=Cc1cc(/C=C/c2cc(/C=[N+](\[O-])C(C)(C)C)c3cc(C(C)C)ccc(C)c2-3)c2c(C)ccc(C(C)C)cc1-2` [I], the melting point was 235 °C (dec.).
Turning to `Cc1ccc(C(C)C)cc2c(C=C3SCCCS3)cc(/C=C/c3cc(/C=[N+](\[O-])C(C)(C)C)c4cc(C(C)C)ccc(C)c3-4)c1-2` [STNXY], the “potency as nitrone-based chain breaking antioxidants / free-radical scavenging/antioxidant activity” value in data set [1] is listed as “remarkable potency”.
`CC(C)(C)[N+]([O-])=Cc1ccccc1` [PBN, alpha-phenyl N-tert-butylnitrone]: in the data set with aged rats, the “age-related changes in cognitive performance” value is listed as “benefit (i.e., improve)”. Moreover, in the data set on aged animal model, the lifespan result is “remarkable extension of the lifespan”. In data set [2], the onset of senescence entry was “effectively delayed the onset of senescence”.
On to `CC1(C)Cc2ccccc2C=[N+]1[O-]` [MDL 101,002], for which, in data set [3], the LPS-induced leukopenia result is recorded as “failed to prevent leukopenia”; the LPS-induced pulmonary edema entry is “prevented pulmonary edema”; the LPS-induced thrombocytopenia result is on record as “partially reduced thrombocytopenia”; the “organ dysfunction and cytokine secretion induced by LPS” value is reported as “reduces”.
With `Cc1c(C)c2c(c(C)c1O)CC[C@@](C)(CCC[C@H](C)CCC[C@H](C)CCCC(C)C)O2` [vitamin E, alpha-tocopherol], in data set [4], the “one-electron oxidative potential (vs. NHE)” value is 0.48 V. Also, the “age-related changes in cognitive performance” value in the data set with aged rats is “benefit (i.e., improve)”.
